Assay results from US12257264B2, “Combination therapy for HIV with adenosine derivative and capsid inhibitors” (Brii Biosciences, Inc., priority 2021, dated 2025).
Several values for one entry are separate records, joined by “and”; a condition that tells them apart may be missing. Identical values can stand only once.

Assay: Plasma exposures following IV infusion alone or in combination to Sprague-Dawley rats
Details: for Lenacapavir Concentrations in Rat Plasma When Dosed with Prodrug formula 4-A: Lenacapavir IV infusion 1.0 mg/kg with Prodrug formula 4-A
Experimental: The pharmacokinetics of EFdA and prodrug formula 4-A, as well as lenacapavir were studied in rats after IV infusion administration alone or in combination at a dose of 1.0 mg/kg each.
Formulations: The prodrugs and lenacapavir were formulated alone or in combination as solutions at 1.0 mg/mL each in 20% […], 10% Solutol aqueous solution within 0.5 hour prior to dose.
Dose Administration and Sample Collection: The in-life phase of this study was conducted at the WuXi Apptec (WuXi) at Shanghai, China in accordance with the WuXi Institutional Animal Care and Use Committee (IACUC) standard animal procedures along with the IACUC guidelines that are in compliance with the Animal Welfare Act, the Guide for the Care and Use of Laboratory Animals. and was approved by the IACUA Committee. Male Sprague-Dawley rats (0.262+/−0.019 kg) were used for the studies. Each drug was administered as a single dose by 30-min IV infusion (1 ml/kg) alone or in combination. Plasma samples were collected at 0 (pre-dose), 5, 10, 15 and 30 min, 1, 2, 4, 7, 12 and 24 h post-dose. Blood (approximately 0.1 mL) was processed immediately for plasma by centrifugation at 3,200 g at 4° C. for 10 min within half an hour of collection. Plasma samples were frozen and maintained at −70° C. until analyzed. To stabilize the prodrug at the sample collection and subsequent analysis, the following stabilizing reagents were added to the blood collection K2EDTA tubes on wet ice prior to sample collection: for each 100 mL of blood, 10 mL of premade inhibitor cocktail consists of 600 mM Citric Acid, 400 mM PMSF, 400 mM NaF, and 400 mM Dichlorvos.
Determination of EFdA and Prodrugs in plasma: Briefly, plasma (20 μL) was mixed with 100 l acetonitrile to precipitate protein. Consistent with sample collection procedure, the same cocktail protocol was also added to stabilize the prodrug in the standard and QC samples.
Bioanalysis: A Sciex API-6500 Plus triplequadrupole mass spectrometer coupled with a Waters Acquity UPLC system (Framingham, MA 01701) was used for quantitative analysis of plasma samples. The column was a Waters HSS T3 column (2.1×50 mm, 1.8 micrometer). The mobile phases used were: A, 0.1% formic acid in water; B, 0.1% formic acid in acetonitrile. For the analysis of EFdA and prodrugs in plasma, the flow rate was 0.6 mL/min with a total run time of 2.0 min. […] Detection of the prodrug and EFdA were achieved using positive ion electrospray mass spectroscopic mode using unit resolution mode. Multiple reaction monitoring (MRM) modes were used to quantify both prodrug and EFdA, e.g. the MRM transition for EFdA was 294.0-154.2 Da, and the transition for prodrug 4-A was 449.3-164.9 Da. For the analysis of lenacapavir in plasma, the flow rate was 0.7 mL/min with a total run time of 1.5 min. The HPLC gradient was initiated at 95% A/5% B for 0.50 min, followed by linear gradient increase to […] over the next 0.2 min; the gradient was subsequently maintained at 100% of mobile B over the next 0.7 min before ramping down to 95% mobile phase A within the following 0.1 min. Detection of lenacapavir was achieved using positive ion electrospray mass spectroscopic mode using unit resolution mode. Multiple reaction monitoring (MRM) modes were used to quantify lenacapavir, e.g. the MRM transition for lenacapavir was 968.1-869.4 Da. Peak areas were integrated by the Sciex program Analyst®, version 1.6.3, operating on a Windows 7 computer where concentrations were determined by a weighted (1/x2) linear regression of peak area ratios (peak area of EFdA/peak area of corresponding IS) versus the nominal concentrations of the plasma calibration standards. Calculations were performed on unrounded numbers. Overall, Analyst® determined the precision and accuracy for the calibration standards and QC samples.

Lenacapavir Concentrations in Rat Plasma When Dosed Alone (Lenacapavir IV infusion 1.0 mg/kg alone, 0.0830 hrs, individual animals): 485 ng/mL and 603 ng/mL and 667 ng/mL
Lenacapavir Concentrations in Rat Plasma When Dosed Alone (Lenacapavir IV infusion 1.0 mg/kg alone, 0.167 hrs, individual animals): 845 ng/mL and 682 ng/mL and 734 ng/mL
Lenacapavir Concentrations in Rat Plasma When Dosed Alone (Lenacapavir IV infusion 1.0 mg/kg alone, 0.250 hrs, individual animals): 810 ng/mL and 801 ng/mL and 894 ng/mL
Lenacapavir Concentrations in Rat Plasma When Dosed Alone (Lenacapavir IV infusion 1.0 mg/kg alone, 0.500 hrs, individual animals): 612 ng/mL and 580 ng/mL and 984 ng/mL
Lenacapavir Concentrations in Rat Plasma When Dosed Alone (Lenacapavir IV infusion 1.0 mg/kg alone, 1.00 hrs, individual animals): 166 ng/mL and 222 ng/mL and 240 ng/mL
Lenacapavir Concentrations in Rat Plasma When Dosed Alone (Lenacapavir IV infusion 1.0 mg/kg alone, 2.00 hrs, individual animals): 104 ng/mL and 149 ng/mL and 164 ng/mL
Lenacapavir Concentrations in Rat Plasma When Dosed Alone (Lenacapavir IV infusion 1.0 mg/kg alone, 4.00 hrs, individual animals): 102 ng/mL and 157 ng/mL and 195 ng/mL
Lenacapavir Concentrations in Rat Plasma When Dosed Alone (Lenacapavir IV infusion 1.0 mg/kg alone, 12.0 hrs, individual animals): 79.4 ng/mL and 106 ng/mL and 139 ng/mL
Lenacapavir Concentrations in Rat Plasma When Dosed Alone (Lenacapavir IV infusion 1.0 mg/kg alone, 24.0 hrs, individual animals): 123 ng/mL and 141 ng/mL and 139 ng/mL
Lenacapavir Concentrations in Rat Plasma When Dosed with Prodrug formula 4-A (0.0830 hrs, individual animals): 460 ng/mL and 391 ng/mL and 314 ng/mL
Lenacapavir Concentrations in Rat Plasma When Dosed with Prodrug formula 4-A (0.167 hrs, individual animals): 479 ng/mL and 589 ng/mL and 415 ng/mL
Lenacapavir Concentrations in Rat Plasma When Dosed with Prodrug formula 4-A (0.250 hrs, individual animals): 623 ng/mL and 664 ng/mL and 375 ng/mL
Lenacapavir Concentrations in Rat Plasma When Dosed with Prodrug formula 4-A (0.500 hrs, individual animals): 643 ng/mL and 714 ng/mL and 448 ng/mL
Lenacapavir Concentrations in Rat Plasma When Dosed with Prodrug formula 4-A (1.00 hrs, individual animals): 170 ng/mL (2×) and 107 ng/mL
Lenacapavir Concentrations in Rat Plasma When Dosed with Prodrug formula 4-A (2.00 hrs, individual animals): 135 ng/mL and 105 ng/mL and 94.7 ng/mL
Lenacapavir Concentrations in Rat Plasma When Dosed with Prodrug formula 4-A (4.00 hrs, individual animals): 93.1 ng/mL and 101 ng/mL and 80.9 ng/mL
concentration at 48 h (male, Sprague-Dawley, rat, in vivo, 1 mg/kg, Lenacapavir Concentrations in Rat Plasma When Dosed Alone): 107 ng/mL
concentration at 0.083 h (male, Sprague-Dawley, rat, in vivo, 1 mg/kg, Lenacapavir Concentrations in Rat Plasma When Dosed Alone, Lenacapavir IV infusion 1.0 mg/kg alone, 0.0830 hrs, Mean): 612 ng/mL
concentration at 0.083 h (male, Sprague-Dawley, rat, in vivo, 1 mg/kg, Lenacapavir Concentrations in Rat Plasma When Dosed Alone, Lenacapavir IV infusion 1.0 mg/kg alone, 0.0830 hrs, individual animals): 692 ng/mL
concentration at 0.167 h (male, Sprague-Dawley, rat, in vivo, 1 mg/kg, Lenacapavir Concentrations in Rat Plasma When Dosed Alone, Lenacapavir IV infusion 1.0 mg/kg alone, 0.167 hrs, Mean): 739 ng/mL
concentration at 0.167 h (male, Sprague-Dawley, rat, in vivo, 1 mg/kg, Lenacapavir Concentrations in Rat Plasma When Dosed Alone, Lenacapavir IV infusion 1.0 mg/kg alone, 0.167 hrs, individual animals): 694 ng/mL
concentration at 0.25 h (male, Sprague-Dawley, rat, in vivo, 1 mg/kg, Lenacapavir Concentrations in Rat Plasma When Dosed Alone, Lenacapavir IV infusion 1.0 mg/kg alone, 0.250 hrs, Mean): 825 ng/mL
Structure (SMILES): CC(C)(C#Cc1ccc(-c2ccc(Cl)c3c(NS(C)(=O)=O)nn(CC(F)(F)F)c23)c([C@H](Cc2cc(F)cc(F)c2)NC(=O)Cn2nc(C(F)(F)F)c3c2C(F)(F)[C@@H]2C[C@H]32)n1)S(C)(=O)=O [Lenacapavir, reference compound]
Lenacapavir Concentrations in Rat Plasma When Dosed Alone (Lenacapavir IV infusion 1.0 mg/kg alone, 7.00 hrs, individual animals): 185 ng/mL and 84.6 ng/mL and 141 ng/mL and 142 ng/mL
Lenacapavir Concentrations in Rat Plasma When Dosed Alone (Lenacapavir IV infusion 1.0 mg/kg alone, 72.0 hrs, individual animals): 51.3 ng/mL and 59.7 ng/mL and 57.2 ng/mL and 110 ng/mL
Lenacapavir Concentrations in Rat Plasma When Dosed with Prodrug formula 4-A (7.00 hrs, individual animals): 140 ng/mL and 101 ng/mL and 72.3 ng/mL and 58.8 ng/mL
Lenacapavir Concentrations in Rat Plasma When Dosed with Prodrug formula 4-A (12.0 hrs, individual animals): 139 ng/mL and 137 ng/mL and 158 ng/mL and 78.6 ng/mL
Lenacapavir Concentrations in Rat Plasma When Dosed with Prodrug formula 4-A (24.0 hrs, individual animals): 129 ng/mL and 164 ng/mL and 176 ng/mL and 62.5 ng/mL
Lenacapavir Concentrations in Rat Plasma When Dosed with Prodrug formula 4-A (72.0 hrs, individual animals): 40.1 ng/mL and 97.8 ng/mL and 97.2 ng/mL and 98.0 ng/mL
